Experiments:
[1] = system: Core promoter reporter with DR1, DR4 or DR12 nuclear hormone response element in Sf9 cells; conditions: previous studies; cited from earlier work
P498W/P499W mutant USP = target: T1, P498W/P499W mutant USP (Drosophila melanogaster, UniProt P20153, P498W/P499W); assay: Intrinsic tryptophan fluorescence ligand-binding assay, P498W/P499W mutant USP; conditions: excitation 290 nm, emission 340 nm
T1 construct: His tag; made in house; host or cells: bacteria (pET32EK vector)
Method: The homodimer-enriched fraction of bacterial recombinant His-dUSP fusion protein was purified by nickel resin selection, elution with imidazole, centrifugal concentration, and then gel permeation chromatography (Superdex 200) with procedures and chemical sources exactly as already described previously Jones et al. (2000) Insect Biochem. Mol. Biol. 30, 671-679. The homodimer-enriched fraction of the purified His-USP fusion protein was raised to 2 ml of NaCl and a final concentration of 0.5 μm. For a fluorescence-based ligand-binding assay based on intrinsic tryptophan fluorescence Jones et al. (2001) Insect Biochem. Mol. Biol. 32, 33-49; Jones et al (1998) Biochem. J. 335, 79-84; 79-84; Jones et al. (2000) Biochem. J. 346, 233-240; Jones et al (1997) Proc. Natl. Acad. Sci. USA 94, 13499-13503, ligand or ethanol carrier was added and the receptor preparation excited at 290 nm and monitored for emission at 340 nm, until the signal from the receptor had stabilized. Fluorescence was measured three times for each sample, with standard deviation typically smaller than the graphical plotted datum point. Each fluorescence experiment was replicated on three or more independent occasions, each time with similar results. […]

C472A/H475L mutant dUSP = target: T2, C472A/H475L mutant dUSP (Drosophila melanogaster, UniProt P20153, C472A/H475L); assay: Intrinsic tryptophan fluorescence ligand-binding assay, C472A/H475L mutant dUSP; conditions: 75 μm ligand; excitation 290 nm, emission 340 nm
T2 construct: His tag; made in house; host or cells: bacteria (pET32EK vector)
Method: (§1) The homodimer-enriched fraction of bacterial recombinant His-dUSP fusion protein was purified by nickel resin selection, elution with imidazole, centrifugal concentration, and then gel permeation chromatography (Superdex 200) with procedures and chemical sources exactly as already described previously Jones et al. (2000) Insect Biochem. Mol. Biol. 30, 671-679. The homodimer-enriched fraction of the purified His-USP fusion protein was raised to 2 ml of NaCl and a final concentration of 0.5 μm. For a fluorescence-based ligand-binding assay based on intrinsic tryptophan fluorescence Jones et al. (2001) Insect Biochem. Mol. Biol. 32, 33-49; Jones et al (1998) Biochem. J. 335, 79-84; 79-84; Jones et al. (2000) Biochem. J. 346, 233-240; Jones et al (1997) Proc. Natl. Acad. Sci. USA 94, 13499-13503, ligand or ethanol carrier was added and the receptor preparation excited at 290 nm and monitored for emission at 340 nm, until the signal from the receptor had stabilized. Fluorescence was measured three times for each sample, with standard deviation typically smaller than the graphical plotted datum point. Each fluorescence experiment was replicated on three or more independent occasions, each time with similar results.
(§2) The ability of the wild-type dUSP and dominant negative, ligand-binding pocket mutant dUSP to bind methyl epoxyfarnesoate was tested.

[2] = target: T3, His-tagged wild-type dUSP (Drosophila melanogaster, UniProt P20153); assay: Intrinsic tryptophan fluorescence ligand-binding assay, wild-type dUSP; conditions: excitation 290 nm, emission 340 nm, 0.5 μm receptor
T3 construct: His tag; made in house; host or cells: bacteria (pET32EK vector)
T3 sequence (P20153 1-508): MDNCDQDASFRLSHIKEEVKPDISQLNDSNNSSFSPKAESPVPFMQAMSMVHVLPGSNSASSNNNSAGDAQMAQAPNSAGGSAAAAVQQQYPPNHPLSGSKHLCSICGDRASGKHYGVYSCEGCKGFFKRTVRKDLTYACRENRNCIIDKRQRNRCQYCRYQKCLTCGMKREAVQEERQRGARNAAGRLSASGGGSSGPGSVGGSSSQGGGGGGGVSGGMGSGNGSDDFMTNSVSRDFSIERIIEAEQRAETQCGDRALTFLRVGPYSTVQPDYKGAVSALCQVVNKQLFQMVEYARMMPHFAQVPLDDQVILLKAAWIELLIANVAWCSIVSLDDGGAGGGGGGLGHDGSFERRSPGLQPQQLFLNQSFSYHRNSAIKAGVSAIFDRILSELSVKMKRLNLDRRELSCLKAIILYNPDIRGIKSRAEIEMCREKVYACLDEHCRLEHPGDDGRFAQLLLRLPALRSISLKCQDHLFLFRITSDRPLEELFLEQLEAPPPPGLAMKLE
Method: as §1, §2

[3] = system: Core promoter reporter with DR1, DR4 or DR12 nuclear hormone response element in Sf9 cells; assay: Sf9 cell transfection assay: methyl epoxyfarnesoate activation of DR-enhancer/Core promoter luciferase reporter; format: cell-based, Spodoptera frugiperda; conditions: transfected Sf9 cells, 75 μm methyl epoxyfarnesoate
Method: Spodoptera frugiperda cell line, Sf9, was maintained and transfected as described previously Jones et al (1998) Biochem. J. 335, 79-84; Jones et al. (2000) Biochem. J. 346, 233-240. As an internal control to compare activities of different constructs, 0.3 μg of a constituitive heat-shock promoter-driven β-galactosidase gene was cotransfected. To study the role of USP in activation of the nuclear hormone receptor response element fused to core promoter in methyl epoxyfarnesoate-treated cells, cloned D. melangaster USP (dUSP) cDNA and its derivatives containing mutations in the ligand-binding pocket were cotransfected with the reporter and internal control plasmids. […] After 48 h of the treatment, the cells were harvested and the activity of the luciferase reporter was measured using a luciferase assay kit (Promega) in a multipurpose scintillation counter (Beckman, Fullerton, Calif.). β-Galactosidase activity was measured using chlorophenol red-[…] monosodium (CPRG; Roche Molecular Biochemicals) as a colorimetric substrate.
The sequences and characteristics of the core promoter ([…]) of the JHE gene were described by Jones et al. (2001) Insect Biochem. Mol. Biol. 32, 33-49; Jones et al (1998) Biochem. J. 335, 79-84; 79-84; Jones et al. (2000) Biochem. J. 346, 233-240. The core promoter responds to respond to methyl epoxyfarnesoate through a heterologous 5′ flanking direct repeat motif in cell transfection assay. This Core promoter reporter was cloned into KpnI/BglII sites of pGL3. An NheI site was then placed immediately 5′ to the KpnI site, and multiple direct repeat (DR) sequences were cloned into the NheI site by the following method. […] Upon annealing, the double stranded oligonucleotides would then have a CTAG overhang at each 5′ end. The annealed oligonucleotides were then ligated into concatamers, fractionated by native PAGE and the gel fractions corresponding to higher concatamer forms recovered and ligated into the NheI site. Specific DR sequences for the oligonucleotides were (upper strand) for DR1: 5′-CAAGGTCAAAGGTCAG-3′ (SEQ ID NO: 13), for DR4: 5′-CAAGGTCAAGAAAGGTCAG-3′ (SEQ ID NO: 14), for DR12: 5′-[…]-3′ (SEQ ID NO: 15; CTAG on 5′ ends not shown). The recovered YDRXCore constructs (X representing 1, 4 or 12 intervening bases; Y representing the number of tandem pairs of direct repeats) were verified by sequencing. The intervening sequences in the DR1 and DR4 motifs were randomly chosen, while the DR12 sequence used is found in the ecdysteroid-sensitive ng-1 and ng-2 genes that are expressed during metamorphosis of D. melanogaster, and can serve in vitro as a binding site for the various receptor dimers involving USP (ecdysteroid receptor (EcR)/USP heterodimer, USP/DHR38 heterodimer and USP/USP homodimer. […]

T1 sequence (P20153 whole entry P498W/P499W): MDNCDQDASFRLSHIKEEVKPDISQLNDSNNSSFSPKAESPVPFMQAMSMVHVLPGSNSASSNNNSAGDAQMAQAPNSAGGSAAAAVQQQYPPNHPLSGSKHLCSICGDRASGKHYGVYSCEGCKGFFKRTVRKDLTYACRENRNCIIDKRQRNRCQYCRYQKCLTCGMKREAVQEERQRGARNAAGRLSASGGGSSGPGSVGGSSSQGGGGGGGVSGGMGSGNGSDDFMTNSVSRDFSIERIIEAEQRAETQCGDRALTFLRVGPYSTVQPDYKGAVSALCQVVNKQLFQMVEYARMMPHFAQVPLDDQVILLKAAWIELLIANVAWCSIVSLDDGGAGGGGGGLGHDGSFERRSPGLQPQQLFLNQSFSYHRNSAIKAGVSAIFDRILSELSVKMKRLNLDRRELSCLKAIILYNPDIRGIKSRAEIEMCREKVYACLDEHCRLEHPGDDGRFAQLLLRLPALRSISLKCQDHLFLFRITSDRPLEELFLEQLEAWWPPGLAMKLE
T2 sequence (P20153 whole entry C472A/H475L): as the sequence (P20153 whole entry P498W/P499W) above, with C472A, H475L, W498P, W499P counted along it

COC(=O)C=C(C)CCC=C(C)CCC1OC1(C)C (stereo not drawn) [methyl epoxyfarnesoate]
concentration of maximum effect (dose dependent) [1]: ~75 μm
effect on receptor intrinsic fluorescence, P498W/P499W mutant USP (P498W/P499W mutant USP): sharply increasing in fluorescence before then decreasing
effect on receptor intrinsic fluorescence (ligand binding), C472A/H475L mutant dUSP (C472A/H475L mutant dUSP): did not exhibit a significant response
effect on receptor intrinsic fluorescence (ligand binding), wild-type dUSP [2]: suppressed the fluorescence
effect on receptor intrinsic fluorescence (ligand binding), wild-type dUSP ([2]; listed as Methyl epoxyfarnesoate): suppression of receptor fluorescence
induction in promoter activity, four tandem copies of DR1 motif [3]: 2.5 fold
induction in promoter activity, four tandem copies of DR4 motif [3]: 3.5 fold
responsiveness of 1DR12mutCore (both DR12 half sites mutated) [3]: no greater than the background of a Core promoter with no enhancer
induction in promoter activity, 4DR12Core construct ([3]; four tandem DR12 motifs): 10 fold

Source: patent US7259254B2, “Mutants and assay system to identify USP/RXR ligands” (University of Kentucky Research Foundation, priority 2002, dated 2007)
